Measured values: article PMC12811659

Tests used:
[1] = not given; remark: listed apart in the source
[2] = not given; remark: listed apart in the source

CC[C@H](C)[C@H](NC(=O)Cn1nc(C)c(/N=N\c2ccccc2)c1C)C(=O)N[C@@H](CO)C(=O)N[C@@H](C)C(=O)O
cis-isomer fraction after 365 nm irradiation: > 98%

CC[C@H](C)[C@H](NC(=O)Cn1nc(C)c(/N=N/c2ccccc2)c1C)C(=O)N[C@@H](CO)C(=O)N[C@@H](C)C(=O)O
trans-isomer fraction after 520 nm irradiation [1]: 87%
trans-isomer fraction, native state [2]: 85%
